Experimental data from patent US10294202B2, “Pyrrolidinones as herbicides” (FMC Corporation, priority 2013, dated 2019).

Experiments:
galium = test: Test A postemergence herbicide test; assay type: in vivo, Galium aparine; conditions: for Plant response rating, Galium: 125 g ai/ha
In short: (§1)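 Ratings compare treated with untreated plants roughly 10 days after a postemergence application made at the one- to two-leaf stage. Scoring uses 0–100, where 0 means no effect and 100 complete control.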

wheat = test: Test A pre-/postemergence herbicide test; assay type: in vivo, Triticum aestivum; conditions: Postemergence; for Plant response rating, Wheat: 125 g ai/ha
In short: (§2)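 Directed soil spray to seeded pots (preemergence) or spray onto one- to two-leaf seedlings 2–10 cm tall (postemergence); loam/sand substrate throughout. Evaluated visually after about 10 days against untreated plants, 0 = no effect, 100 = complete control.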

rice = test: Test B flooded paddy test; assay type: in vivo, Oryza sativa; conditions: 500 g ai/ha, Flood; scale of 0 to 100 where 0 is no effect and 100 is complete control
In short: (§3)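 Visual ratings from 0, meaning no effect, up to 100, meaning complete control, were made by comparison with untreated controls 13 to 15 days after treatment. Test compounds went straight into floodwater standing 3 cm over the soil of pots holding 2-leaf seedlings.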

giant foxtail = test: Test A pre-/postemergence herbicide test; assay type: in vivo, Setaria faberii
In short: as §2

blackgrass = test: Test A postemergence herbicide test; assay type: in vivo, Alopecurus myosuroides
In short: as §1

kochia = test: Test A pre-/postemergence herbicide test; assay type: in vivo, Kochia scoparia
In short: as §2

ryegrass, Italian = test: Test A pre-/postemergence herbicide test; assay type: in vivo, Lolium multiflorum
In short: as §2

barnyardgrass [1] = test: Test A pre-/postemergence herbicide test; assay type: in vivo, Echinochloa crus-galli
In short: as §2

pigweed = test: Test A pre-/postemergence herbicide test; assay type: in vivo, Amaranthus retroflexus
In short: as §2

ragweed = test: Test A pre-/postemergence herbicide test; assay type: in vivo, Ambrosia elatior
In short: as §2

corn = test: Test A pre-/postemergence herbicide test; assay type: in vivo, Zea mays; conditions: Postemergence
In short: as §2

sedge, umbrella = test: Test B flooded paddy test; assay type: in vivo, Cyperus difformis; conditions: 500 g ai/ha, Flood; scale of 0 to 100 where 0 is no effect and 100 is complete control
In short: as §3

barnyardgrass [2] = test: Test B flooded paddy test; assay type: in vivo, Echinochloa crus-galli; conditions: 500 g ai/ha, Flood; scale of 0 to 100 where 0 is no effect and 100 is complete control
In short: as §3

ducksalad = test: Test B flooded paddy test; assay type: in vivo, Heteranthera limosa; conditions: 500 g ai/ha, Flood; scale of 0 to 100 where 0 is no effect and 100 is complete control
In short: as §3

[3] = 0 to 100 scale, 0 is no effect, 100 is complete control
[4] = 125 g ai/ha, visual rating, 0 to 100 scale, 0 no effect, 100 complete control, approximately 10 days, preemergence
[5] = Postemergence, 125 g ai/ha, 0 to 100 scale, 0 is no effect, 100 is complete control
[6] = preemergence, 500 g ai/ha, 0 to 100 scale, 0 is no effect and 100 is complete control
[7] = 125 g ai/ha, 0 to 100 scale, 0 is no effect, 100 is complete control
[8] = visual rating on 0 to 100 scale (0 no effect, 100 complete control), approx. 10 days
[9] = Postemergence, 125 g ai/ha, visual rating on 0 to 100 scale (0 no effect, 100 complete control), approx. 10 days
[10] = Postemergence, 500 g ai/ha, 0 to 100 scale (0 no effect, 100 complete control)
[11] = Preemergence, 125 g ai/ha, 0 to 100 scale where 0 is no effect and 100 is complete control
[12] = Preemergence, 500 g ai/ha, visual rating on 0 to 100 scale (0 no effect, 100 complete control)
[13] = 125 g ai/ha, visual rating on 0 to 100 scale (0 no effect, 100 complete control), approx. 10 days
[14] = 500 g ai/ha, 0 to 100 scale (0 no effect, 100 complete control)

## CON(C(=O)C1C(=O)NCC1c1ccc(F)c(F)c1)c1cc([N+](=O)[O-])ccc1F (stereo not drawn) [Compound 175]
galium; [3]
  Plant response rating, Galium: 0
galium; 500 g ai/ha
  Galium plant response rating (0 to 100 scale, 0 is no effect, 100 is complete control): 0
wheat; [3]
  Plant response rating, Wheat: 0
wheat; 500 g ai/ha
  Wheat plant response rating (0 to 100 scale, 0 is no effect, 100 is complete control): 0
rice
  Plant response rating, Rice: 0
Giant foxtail; [4]
  Plant response rating, Foxtail, Giant: 0
Giant foxtail; [5]
  Plant response rating, Foxtail, Giant: 0
Giant foxtail; Postemergence, 500 g ai/ha
  Foxtail, Giant plant response rating (0 to 100 scale, 0 is no effect, 100 is complete control): 0
Giant foxtail; [6]
  Plant response rating, Foxtail, Giant: 0
blackgrass; [7]
  Plant response rating, Blackgrass: 0
blackgrass; 500 g ai/ha
  Blackgrass plant response rating (0 to 100 scale, 0 is no effect, 100 is complete control): 0
kochia; [4]
  Plant response rating, Kochia: 0
kochia; [5]
  Plant response rating, Kochia: 0
kochia; Postemergence, 500 g ai/ha
  Kochia plant response rating (0 to 100 scale, 0 is no effect, 100 is complete control): 0
kochia; [6]
  Plant response rating, Kochia: 0
ryegrass, Italian; [4]
  Plant response rating, Ryegrass, Italian: 0
ryegrass, Italian; [5]
  Plant response rating, Ryegrass, Italian: 0
ryegrass, Italian; Postemergence, 500 g ai/ha
  Ryegrass, Italian plant response rating (0 to 100 scale, 0 is no effect, 100 is complete control): 0
ryegrass, Italian; [6]
  Plant response rating, Ryegrass, Italian: 0
Barnyardgrass [1]; [4]
  Plant response rating, Barnyardgrass: 0
Barnyardgrass [1]; [5]
  Plant response rating, Barnyardgrass: 0
Barnyardgrass [1]; Postemergence, 500 g ai/ha
  Barnyardgrass plant response rating (0 to 100 scale, 0 is no effect, 100 is complete control): 0
Barnyardgrass [1]; [6]
  Plant response rating, Barnyardgrass: 0
pigweed; [4]
  Plant response rating, Pigweed: 0
pigweed; [5]
  Plant response rating, Pigweed: 0
pigweed; Postemergence, 500 g ai/ha
  Pigweed plant response rating (0 to 100 scale, 0 is no effect, 100 is complete control): 0
pigweed; [6]
  Plant response rating, Pigweed: 0
ragweed; [4]
  Plant response rating, Ragweed: 0
ragweed; [5]
  Plant response rating, Ragweed: 0
ragweed; Postemergence, 500 g ai/ha
  Ragweed plant response rating (0 to 100 scale, 0 is no effect, 100 is complete control): 0
ragweed; [6]
  Plant response rating, Ragweed: 0
corn; [7]
  Plant response rating, Corn: 0
corn; 500 g ai/ha
  Corn plant response rating (0 to 100 scale, 0 is no effect, 100 is complete control): 0
sedge, umbrella
  Plant response rating, Sedge, Umbrella: 0
Barnyardgrass [2]
  Plant response rating, Barnyardgrass: 0
ducksalad
  Plant response rating, Ducksalad: 30

## O=C1NCC(c2ccc(OC(F)F)cc2)C1C(=O)Nc1ccccc1F (stereo not drawn) [Compound 349]
galium; [8]
  Plant response rating, Galium: 20
wheat; [8]
  Plant response rating, Wheat: 0
rice
  Plant response rating, Rice: 0
Giant foxtail; [9]
  Plant response rating, Foxtail, Giant: 60
Giant foxtail; [10]
  Plant response rating, Foxtail, Giant: 90
Giant foxtail; [11]
  Plant response rating, Foxtail, Giant: 80
Giant foxtail; [12]
  Foxtail, Giant plant response rating: 90
blackgrass; [13]
  Plant response rating, Blackgrass: 20
blackgrass; [14]
  Plant response rating, Blackgrass: 40
kochia; [9]
  Plant response rating, Kochia: 40
kochia; [11]
  Plant response rating, Kochia: 50
kochia; [12]
  Kochia plant response rating: 80
ryegrass, Italian; [9]
  Plant response rating, Ryegrass, Italian: 0
ryegrass, Italian; [11]
  Plant response rating, Ryegrass, Italian: 0
ryegrass, Italian; [12]
  Ryegrass, Italian plant response rating: 0
Barnyardgrass [1]; [9]
  Plant response rating, Barnyardgrass: 80
Barnyardgrass [1]; [10]
  Plant response rating, Barnyardgrass: 90
Barnyardgrass [1]; [11]
  Plant response rating, Barnyardgrass: 70
Barnyardgrass [1]; [12]
  Barnyardgrass plant response rating: 90
pigweed; [9]
  Plant response rating, Pigweed: 0
pigweed; [11]
  Plant response rating, Pigweed: 0
pigweed; [12]
  Pigweed plant response rating: 40
ragweed; [9]
  Plant response rating, Ragweed: 0
ragweed; [11]
  Plant response rating, Ragweed: 0
ragweed; [12]
  Ragweed plant response rating: 40
corn; [13]
  Plant response rating, Corn: 0
corn; [14]
  Plant response rating, Corn: 20
sedge, umbrella
  Plant response rating, Sedge, Umbrella: 0
Barnyardgrass [2]
  Plant response rating, Barnyardgrass: 40
ducksalad
  Plant response rating, Ducksalad: 90
